Data on five compounds can be found in patent publication US6337417B1, “N-phenyltetrahydrophthalamic acid derivatives, methods of producing same, and herbicides containing same as effective components” (Central Glass Co., Ltd., priority 1994, dated 2002).

Assay type in all cases: in vivo
Common to all, as to parameters: key: 5: completely killed; 4: seriously injured; 3: considerably injured; 2: somewhat injured; 1: slightly injured; 0: not injured (normally grown)

Data set [1] deals with aobiyu (slender amaranth, Amaranthus viridis). The data set can be described thus: Experiment 2 foliage treatment: aobiyu. The settings on record: 4 weeks after treatment. The protocol:
(§1) Upon seedling stage (two- or three-leaved stage) of rice, cockspur (Panicum crus-galli), garden radish, aobiyu (slender amaranth, Amaranthus viridis) and mehishiba (henry crabgrass, Digitaria cliaris) which were grown on a cultivated soil put in pots of 1/15500 ares, a selected compound obtained in a manner analogous to Example 8, in suspended wettable powder, was sprayed to each plant. After that, the pots were kept in a glass chamber to allow each plant to grow, and after the lapse of 4 weeks from the treatment with the selected compounds the herbicidal effects were evaluated. The evaluation of the herbicidal effects was similarly conducted as to that of Experiment 1.

The subject of data set [2] is rice. The experiment in a line: Experiment 5 foliage treatment: rice. The settings on record: foliage spray of wettable powder suspension, evaluated 4 weeks after treatment. The protocol:
as §1, with “11,” for “8,”, “as” for “as to”

Data set [3] relates to aobiyu (slender amaranth, Amaranthus viridis). The experiment in a line: Experiment 8 foliage treatment: aobiyu. The settings on record: foliage spray of wettable powder suspension, evaluated 4 weeks after treatment. As for the experimental part:
as §1, with “14,” for “8,”

Data set [4] concerns mehishiba (henry crabgrass, Digitaria cliaris). The experiment in a line: Experiment 2 foliage treatment: mehishiba. The settings on record: 4 weeks after treatment. As for the experimental part:
as §1

In data set [5] the test system is cockspur (Panicum crus-galli). The data set can be described thus: Experiment 5 foliage treatment: cockspur. The settings on record: foliage spray of wettable powder suspension, evaluated 4 weeks after treatment. The protocol: as §1, with “11,” for “8,”, “as” for “as to”
For data set [6], the system named is aobiyu (slender amaranth, Amaranthus viridis). The data set can be described thus: Experiment 5 foliage treatment: aobiyu. The settings on record: foliage spray of wettable powder suspension, evaluated 4 weeks after treatment. As for the experimental part:
as §1, with “11,” for “8,”, “as” for “as to”

The subject of data set [7] is cockspur (Panicum crus-galli). The experiment in a line: Experiment 2 foliage treatment: cockspur. The settings on record: 4 weeks after treatment. As for the experimental part: as §1
Data set [8] has as its system mehishiba (henry crabgrass, Digitaria cliaris). The experiment in a line: Experiment 8 foliage treatment: mehishiba. The settings on record: foliage spray of wettable powder suspension, evaluated 4 weeks after treatment. As for the experimental part:
as §1, with “14,” for “8,”

The subject of data set [9] is rice. The data set can be described thus: Experiment 2 foliage treatment: rice. The settings on record: 4 weeks after treatment. As for the experimental part: as §1
Data set [10] deals with garden radish. The data set can be described thus: Experiment 8 foliage treatment: garden radish. The settings on record: foliage spray of wettable powder suspension, evaluated 4 weeks after treatment. As for the experimental part: as §1, with “14,” for “8,”
Data set [11] concerns rice. The experiment in a line: Experiment 8 foliage treatment: rice. The settings on record: foliage spray of wettable powder suspension, evaluated 4 weeks after treatment. The protocol: as §1, with “14,” for “8,”
Data set [12] concerns garden radish. The experiment in a line: Experiment 2 foliage treatment: garden radish. The settings on record: 4 weeks after treatment. As for the experimental part:
as §1

The subject of data set [13] is mehishiba (henry crabgrass, Digitaria cliaris). The data set can be described thus: Experiment 5 foliage treatment: mehishiba. The settings on record: foliage spray of wettable powder suspension, evaluated 4 weeks after treatment. As for the experimental part:
as §1, with “11,” for “8,”, “as” for “as to”

For data set [14], the system named is cockspur (Panicum crus-galli). The experiment in a line: Experiment 8 foliage treatment: cockspur. The settings on record: foliage spray of wettable powder suspension, evaluated 4 weeks after treatment. The protocol: as §1, with “14,” for “8,”
For data set [15], the system named is garden radish. The experiment in a line: Experiment 5 foliage treatment: garden radish. The settings on record: foliage spray of wettable powder suspension, evaluated 4 weeks after treatment. As for the experimental part:
as §1, with “11,” for “8,”, “as” for “as to”

Another data set relates to broad-leaved weeds. The data set can be described thus: Experiment 7 flooded soil treatment: broad-leaved weeds. The settings on record: evaluated 4 weeks after treatment. An excerpt: (§2) Paddy soil (clay loam) was put into a pot so as to have a surface area of 1/15500 ares. Uniformly mixed seeds of several kinds of weeds, viz., nobie (barnyardgrass, Echinochloa spp.), broad-leaved weeds, hotarui (bulrush, Scirpus juncoides) and tamagayatsuri (small-flowered umbrellaplant, Cyperus difformis), were sown in the surface layer of the soil in each pot, and then paddy rice seedlings at the two- or three-leaved stage were transplanted into each pot to a depth of 2 cm, and water was fed into each pot so as to provide a 3 cm deep water layer on the soil surface. After 3 days, in other words at the initial stage of germination of nobie (barnyardgrass, Echinochloa spp.), a predetermined amount of a selected compound obtained in a manner analogous to Example 14 in the form of diluted aqueous solution was dropped into the water layer in each pot. After that, the pots were kept in a glass chamber to allow the paddy rice and the weeds to grow, and after the lapse of 4 weeks from the treatment with the selected compounds, the herbicidal effects and the degree of injury to the paddy rice were evaluated. The evaluation of the herbicidal effects was similarly conducted as that of Experiment 1.

Data set [16] deals with hotarui (bulrush, Scirpus juncoides). The experiment in a line: Experiment 7 flooded soil treatment: hotarui. The settings on record: evaluated 4 weeks after treatment.
Text: as §2

A further data set deals with paddy rice. The experiment in a line: Experiment 7 flooded soil treatment: injury to paddy rice. The settings on record: evaluated 4 weeks after treatment.
Text: as §2

The test system of data set [17] is nobie (barnyardgrass, Echinochloa spp.). The experiment in a line: Experiment 7 flooded soil treatment: nobie. The settings on record: evaluated 4 weeks after treatment.
Text: as §2

Data set [18] concerns tamagayatsuri (small-flowered umbrellaplant, Cyperus difformis). The data set can be described thus: Experiment 7 flooded soil treatment: tamagayatsuri. The settings on record: evaluated 4 weeks after treatment.
Text: as §2

The structures appear in SMILES notation.

`CCC(=O)Nc1ccc(Cl)c(Cl)c1` [Comparative agentB, Propanil, reference compound]: the “Herbicidal Effect aobiyu” value in [1] (40 g/10a), in data set [1] (80 g/10a), in data set [3] (40 g/10a), in data set [3] (80 g/10a), in data set [6] (40 g/10a) and in data set [6] (80 g/10a) was 5 in each case. Besides, the “Herbicidal Effect rice” value with rice [2] (40 g/10a), in the data set with rice [2] (80 g/10a), with rice [9] (40 g/10a), in the data set with rice [9] (80 g/10a), in the data set with rice [11] (40 g/10a) and in the data set with rice [11] (80 g/10a) was 0 throughout. Besides, the “Herbicidal Effect mehishiba” value came to 1 in [4] (40 g/10a); 1 in data set [4] (80 g/10a); 0 in data set [8] (40 g/10a); 1 in data set [8] (80 g/10a); 1 in data set [13] (40 g/10a); 1 in [13] (80 g/10a). In addition, the “Herbicidal Effect cockspur” value in [5] (40 g/10a) turned out to be 0; in data set [5] (80 g/10a), 0; in [7] (40 g/10a) it was 0; in [7] (80 g/10a) it was 0; in [14] (40 g/10a), 1; in [14] (80 g/10a) it was 1. For the same compound, the “Herbicidal Effect garden radish” value with garden radish [10] (40 g/10a) worked out at 1; in the data set with garden radish [10] (80 g/10a), 3; in the data set with garden radish [12] (40 g/10a), 3; in the data set on garden radish [12] (80 g/10a) it was 4; in the data set on garden radish [15] (40 g/10a) it was 3; in the data set with garden radish [15] (80 g/10a), 4.

Turning to `CCCCOC(=O)C1=C(C(=O)N(C(C)=O)c2cc(SCC(=O)OCC)c(Cl)cc2F)CCCC1` [compound 39], the “Herbicidal Effect aobiyu” value in data set [1] (40 g/10a) and in data set [1] (80 g/10a) was 5 in each case. Moreover, the “Herbicidal Effect mehishiba” value in data set [4] (40 g/10a) and in data set [4] (80 g/10a) was 1 throughout. In addition, the “Herbicidal Effect cockspur” value in [7] (40 g/10a) and in data set [7] (80 g/10a) was 1 each time. For the same compound, the “Herbicidal Effect rice” value in the data set with rice [9] (40 g/10a) and with rice [9] (80 g/10a) was 1 throughout. For the same compound, the “Herbicidal Effect garden radish” value in the data set on garden radish [12] (40 g/10a) and in the data set on garden radish [12] (80 g/10a) was 5 throughout.

On to `CCCCOC(=O)CSc1cc(N(C(C)=O)C(=O)C2=C(C(=O)OCCCC)CCCC2)c(F)cc1Cl` [compound 40], for which the “Herbicidal Effect aobiyu” value in data set [1] (40 g/10a) and in [1] (80 g/10a) was 5 each time. The “Herbicidal Effect mehishiba” value in data set [4] (40 g/10a) and in data set [4] (80 g/10a) was 1 each time. For the same compound, the “Herbicidal Effect cockspur” value in [7] (40 g/10a) and in data set [7] (80 g/10a) was 1 throughout. For the same compound, the “Herbicidal Effect rice” value with rice [9] (40 g/10a) and in the data set with rice [9] (80 g/10a) was 1 in each case. Further, the “Herbicidal Effect garden radish” value in the data set on garden radish [12] (40 g/10a) and in the data set with garden radish [12] (80 g/10a) was 5 in each case.

As for `C#CC(C)Oc1cc(N(C(=O)C2=C(C(=O)OCCC)CCCC2)C(=O)c2cccs2)c(F)cc1Cl` (stereo not drawn) [compound 92], the “Herbicidal Effect broad-leaved weed” value in the data set on broad-leaved weeds (6.25 g/10a) and in the data set on broad-leaved weeds (12.5 g/10a) was 5 each time. Moreover, the “Herbicidal Effect hotarui” value in [16] (6.25 g/10a) and in data set [16] (12.5 g/10a) was 4 each time. Besides, the “Injury of Paddy” value in the data set on paddy rice (6.25 g/10a) and in the data set on paddy rice (12.5 g/10a) was 0 each time. Also, the “Herbicidal Effect aobiyu” value in data set [3] (40 g/10a) and in data set [3] (80 g/10a) was 5 throughout. The “Herbicidal Effect nobie” value in [17] (6.25 g/10a) and in data set [17] (12.5 g/10a) was 5 each time. The “Herbicidal Effect mehishiba” value in [8] (40 g/10a) and in [8] (80 g/10a) was 1 each time. The “Herbicidal Effect garden radish” value in the data set with garden radish [10] (40 g/10a) and in the data set on garden radish [10] (80 g/10a) was 4 in each case. Also, the “Herbicidal Effect rice” value in the data set on rice [11] (40 g/10a) and in the data set with rice [11] (80 g/10a) was 1 throughout. Also, the “Herbicidal Effect cockspur” value in data set [14] (40 g/10a) and in data set [14] (80 g/10a) was 1 each time. Moreover, the “Herbicidal Effect tamagayatsuri” value in data set [18] (6.25 g/10a) was 4; in data set [18] (12.5 g/10a), 5.

Turning to `C#CC(C)Oc1cc(N(C(=O)C2=C(C(=O)OCCCC)CCCC2)C(=O)c2cccs2)c(F)cc1Cl` (stereo not drawn) [compound 93], the “Herbicidal Effect broad-leaved weed” value with broad-leaved weeds (6.25 g/10a) and in the data set with broad-leaved weeds (12.5 g/10a) was 5 throughout. Further, the “Herbicidal Effect hotarui” value in [16] (6.25 g/10a) and in data set [16] (12.5 g/10a) was 4 each time. For the same compound, the “Injury of Paddy” value with paddy rice (6.25 g/10a) and with paddy rice (12.5 g/10a) was 0.5 throughout. The “Herbicidal Effect aobiyu” value in data set [3] (40 g/10a) and in data set [3] (80 g/10a) was 5 in each case. The “Herbicidal Effect nobie” value in data set [17] (6.25 g/10a) and in data set [17] (12.5 g/10a) was 5 throughout. In addition, the “Herbicidal Effect mehishiba” value in data set [8] (40 g/10a) and in [8] (80 g/10a) was 1 throughout. Also, the “Herbicidal Effect garden radish” value with garden radish [10] (40 g/10a) is 4; in the data set on garden radish [10] (80 g/10a) it was 5. For the same compound, the “Herbicidal Effect rice” value in the data set with rice [11] (40 g/10a) and in the data set on rice [11] (80 g/10a) was 1 each time. The “Herbicidal Effect cockspur” value in data set [14] (40 g/10a) and in data set [14] (80 g/10a) was 1 in each case. For the same compound, the “Herbicidal Effect tamagayatsuri” value in data set [18] (6.25 g/10a) and in data set [18] (12.5 g/10a) was 4 throughout.
